From US20260248087A1, “GENERATING DOUBLED HAPLOID PLANTS” (Syngenta Crop Protection AG, priority 2023, published 2026) come the findings set out here.

Each structure is given as a SMILES string. Where “and” joins values, the source holds several entries; their conditions need not be identical. Equal values may be shown once.

One data set relates to isolated embryos. Put plainly: Potting and transplant rate, co-treatment with benoxacor or dichlormid during colchicine treatment. It is filed as in vivo, maize. The text has this:
As used herein, the term “potted rate” or “potting rate” refers to the percent of germinated embryos successfully transferred to soil from total treated haploid embryos. The “potted rate” is used as an indication of plant health in monitoring the success of recovery and growth after treatment of haploids. As used herein, the term “transplant rate” refers to the survival of healthy plants after embryos were germinated and transferred to soil.
Benoxacor was applied to isolated embryos of 2 genoytypes, with 2 replicates at levels of 0, 20, 50, 100 or 200 mg/L during colchicine treatment in the doubling media. The co-treatments were incubated for durations of 24 or 48 hours. […] None of the 48-hour co-treatments performed better than the equivalent co-treatment at 24 hours (see Table 18).
Dichlormid was applied to isolated embryos from 2 genotypes, with 2 replicates at levels of 0, 20, 50, 100, 200 and 300 mg/L during colchicine treatment in the doubling media. The co-treatments were incubated for durations of 24 or 48 hours. […] The highest percent transplanted rates were 92% and 88% for co-treatments 100 mg/L and 50 mg/L both at 24 hours, respectively. None of the 48-hour co-treatments performed better than the equivalent co-treatment at 24 hours (see Table 19).

For the next data set, the system named is corn embryos. Briefly: Uptake of metcamifen and metabolism of colchicine in corn embryos (LCMS). As to conditions: 500 ppm colchicine, corn embryos. It is filed as in vitro ADME. The procedure:
An experiment was completed to evaluate the uptake of metcamifen into corn embryos, whether colchicine is metabolized in the embryos, and if metcamifen increased the rate of colchicine metabolism. Corn embryos were co-treated with 500 ppm colchicine in the presence of 200 ppm, 1000 ppm or no metcamifen (control) for 24 or 48 hours and frozen. One biological replicate was represented by five embryos, and three biological replicates were used per co-treatment.
Prior to extraction, embryos were washed for 20 seconds in 80:20 (v/v) acetonitrile:H2O to remove any colchicine and metcamifen on the surface. Each replicate was extracted in 0.5 ml methanol using a fast prep maceration method. Then, samples were diluted 1 in 10 prior to analysis by Liquid Chromatography Mass Spectrometry (LCMS). Samples were analyzed alongside matrix matched standards of colchicine and metcamifen. Metabolite investigations were performed to identify any metabolites.

As to `CC1COc2ccccc2N1C(=O)C(Cl)Cl` (stereo not shown) [Benoxacor, benoxacor], the “Potting Rate Mean” value with isolated embryos (benoxacor 20 mg/L, 24 hours) stood at 79%; with isolated embryos (benoxacor 50 mg/L, 24 hours), 90%; with isolated embryos (benoxacor 50 mg/L, 48 hours) it was 40%; in the data set on isolated embryos (benoxacor 100 mg/L, 24 hours), 79%; in the data set on isolated embryos (benoxacor 100 mg/L, 48 hours) it was 60%; with isolated embryos (benoxacor 200 mg/L, 48 hours) it was 74%.

Turning to `C=CCN(CC=C)C(=O)C(Cl)Cl` [Dichlormid, dichlormid], the “Potting Rate Mean” value in the data set on isolated embryos (dichlormid 20 mg/L, 24 hours) is 89%; with isolated embryos (dichlormid 50 mg/L, 24 hours), 90% and 91%; in the data set on isolated embryos (dichlormid 100 mg/L, 24 hours), 96% and 97%; with isolated embryos (dichlormid 100 mg/L, 48 hours), 70%; in the data set with isolated embryos (dichlormid 200 mg/L, 48 hours) it was 86%; in the data set on isolated embryos (dichlormid 300 mg/L, 48 hours), 95%. In addition, the “Transplant Rate Mean” value is 86% in the data set on isolated embryos (dichlormid 20 mg/L, 24 hours); 88% and 89% in the data set with isolated embryos (dichlormid 50 mg/L, 24 hours); 92% in the data set with isolated embryos (dichlormid 100 mg/L, 24 hours); 70% in the data set on isolated embryos (dichlormid 100 mg/L, 48 hours); 84% in the data set with isolated embryos (dichlormid 200 mg/L, 48 hours); 93% in the data set on isolated embryos (dichlormid 300 mg/L, 48 hours).

Regarding `COc1cc2c(c(OC)c1OC)-c1ccc(OC)c(=O)cc1[C@@H](NC(C)=O)CC2` [colchicine], the “amount of colchicine recovered after 48 hours relative to 24 hours” value in the data set with corn embryos was “double”.
